Laboratory results from ChEMBL document CHEMBL5550210, “Discovery of Novel α,β-Unsaturated Amide Derivatives as Candidate Antifungals to Overcome Fungal Resistance” (J Med Chem, 2024).
Converted amounts (≈) assume the structure as drawn. The source made the active and inactive calls. The rule behind the calls is not given here.

What was measured:
Aspergillus fumigatus = test: Antifungal activity against Aspergillus fumigatus CGMCC 3.7795 assessed as inhibition of fungal growth by CLSI protocol based microdilution method; format: functional
Candida albicans [1] = test: Antifungal activity against fluconazole-resistant Candida albicans 632 assessed as inhibition of fungal growth by CLSI based microdilution method; format: functional
[2] = Metabolic stability in mouse liver microsomes assessed as half life; format: ADME, Microsome
Candida albicans [3] = test: Antifungal activity against Candida albicans SC5314 assessed as fungal cell membrane injury at 16 ug/ml incubated for 24 hrs by transmission electron microscopic analysis; format: functional, organism-based; conditions: dose 16.0 µg/ml
Candida albicans [4] = test: Antifungal activity against Candida albicans assessed as inhibition of fungal growth by CLSI protocol based microdilution method; format: functional
Pichia kudriavzevii = test: Antifungal activity against Candida krusei AS 2.1045 assessed as inhibition of fungal growth by CLSI protocol based microdilution method; format: functional
Candida albicans [5] = test: Antifungal activity against Candida albicans CPCC400616 assessed as inhibition of fungal growth by CLSI protocol based microdilution method; format: functional
[6] = Stability in mouse plasma assessed as parent compound remaining measured at 180 mins; format: ADME, cell-free; conditions: read-out: Stability
[7] = target: T1, Lanosterol 14-alpha demethylase (Candida albicans (strain SC5314 / ATCC MYA-2876) (Yeast), UniProt P10613); test: Inhibition of CYP51 in Candida albicans SC5314 assessed as increase in lanosterol level at 0.031 ug/ml incubated for 24 hrs by GC-MS analysis relative to control; conditions: at 0.031 µg/mL
Candida tropicalis = test: Antifungal activity against Candida tropicalis CGMCC 2.3739 assessed as inhibition of fungal growth by CLSI protocol based microdilution method; format: functional
Candida albicans [8] = test: Antifungal activity against Candida albicans SC5314 assessed as inhibition of fungal growth by CLSI protocol based microdilution method; format: functional
Cryptococcus neoformans = test: Antifungal activity against Cryptococcus neoformans CGMCC2.3161 assessed as inhibition of fungal growth by CLSI protocol based microdilution method; format: functional
[9] = target: T1, Lanosterol 14-alpha demethylase; test: Inhibition of CYP51 in Candida albicans SC5314 assessed as increase in eburicol level at 0.031 ug/ml incubated for 24 hrs by GC-MS analysis relative to control; conditions: at 0.031 µg/mL
[10] = Half life in mouse plasma measured at 180 mins; format: ADME, cell-free
Candida albicans [11] = test: Antifungal activity against fluconazole-resistant Candida albicans CaR assessed as inhibition of fungal growth by CLSI based microdilution method; format: functional
Nakaseomyces glabratus = test: Antifungal activity against Candida glabrata assessed as inhibition of fungal growth by CLSI protocol based microdilution method; format: functional
Candida albicans [12] = test: Antifungal activity against fluconazole-resistant Candida albicans 17 assessed as inhibition of fungal growth by CLSI based microdilution method; format: functional
Candida albicans [13] = test: Fungicidal activity against Candida albicans assessed as inhibition of fungal growth measured after 48 hrs by CLSI protocol based microdilution method; format: functional
Candida parapsilosis = test: Antifungal activity against Candida parapsilosis ATCC 22019 assessed as inhibition of fungal growth by CLSI protocol based microdilution method; format: functional; conditions: Lodderomyces parapsilosis
[14] = target: T1, Lanosterol 14-alpha demethylase; test: Inhibition of CYP51 in Candida albicans SC5314 assessed as increase in obtusifoliol level at 0.031 ug/ml incubated for 24 hrs by GC-MS analysis relative to control; conditions: at 0.031 µg/mL
Candida albicans [15] = test: Antifungal activity against fluconazole-resistant Candida albicans 901 assessed as inhibition of fungal growth by CLSI based microdilution method; format: functional
Candida albicans [16] = test: Antifungal activity against fluconazole-resistant Candida albicans 904 assessed as inhibition of fungal growth by CLSI based microdilution method; format: functional
[17] = target: T1, Lanosterol 14-alpha demethylase; test: Inhibition of CYP51 in Candida albicans SC5314 assessed as reduction in ergosterol content at 0.031 ug/ml incubated for 24 hrs by GC-MS analysis relative to control; conditions: at 0.031 µg/mL
Candida albicans [18] = test: Antifungal activity against Candida albicans SC5314 assessed as leakage of endogenous substances at 16 ug/ml incubated for 24 hrs by transmission electron microscopic analysis; format: functional, organism-based; conditions: dose 16.0 µg/ml

T1 sequence (P10613 whole entry): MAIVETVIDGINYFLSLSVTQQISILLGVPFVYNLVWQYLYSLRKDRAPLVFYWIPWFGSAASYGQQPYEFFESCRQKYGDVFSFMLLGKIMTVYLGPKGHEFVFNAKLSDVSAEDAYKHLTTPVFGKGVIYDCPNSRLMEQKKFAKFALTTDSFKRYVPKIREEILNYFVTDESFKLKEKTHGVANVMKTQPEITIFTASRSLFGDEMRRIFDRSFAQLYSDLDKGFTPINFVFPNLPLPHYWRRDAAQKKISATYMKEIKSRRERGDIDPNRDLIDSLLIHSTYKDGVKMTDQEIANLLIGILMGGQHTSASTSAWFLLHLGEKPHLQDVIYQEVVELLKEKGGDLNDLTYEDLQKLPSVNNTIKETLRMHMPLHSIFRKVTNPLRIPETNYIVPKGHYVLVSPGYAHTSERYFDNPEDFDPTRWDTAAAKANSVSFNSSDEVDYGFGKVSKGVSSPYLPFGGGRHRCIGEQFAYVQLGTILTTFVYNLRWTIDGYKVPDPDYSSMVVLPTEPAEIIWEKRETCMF

SMILES	MIC (Aspergillus fumigatus)	MIC (Candida albicans [1])	MIC (Pichia kudriavzevii)	MIC (Candida albicans [5])	MIC (Candida tropicalis)	MIC (Candida albicans [8])	MIC (Cryptococcus neoformans)	MIC (Candida albicans [11])	MIC (Nakaseomyces glabratus)	MIC (Candida albicans [12])	MIC (Candida parapsilosis)	MIC (Candida albicans [15])	MIC (Candida albicans [16])	further results
OC(Cn1cncn1)(Cn1cncn1)c1ccc(F)cc1F [FLUCONAZOLE]	> 128 µg/mL	> 128 µg/mL	32 µg/mL (≈ 104 µM)	4 µg/mL (≈ 13.1 µM)	2 µg/mL (≈ 6.53 µM)	0.5 µg/mL (≈ 1.63 µM)	4 µg/mL (≈ 13.1 µM)	> 128 µg/mL	32 µg/mL (≈ 104 µM)	> 128 µg/mL	4 µg/mL (≈ 13.1 µM)	> 128 µg/mL	> 128 µg/mL	half-life [2]: > 2 h; Activity (Candida albicans [3]): Active; MIC (Candida albicans [4]): > 128 µg/mL; remaining at 3 h [6]: 116%; inhibition (INH) [7]: Active; inhibition (INH) [9]: Active; half-life [10]: > 6 h; MFC (Candida albicans [13]): > 128 µg/mL; inhibition (INH) [14]: Active; inhibition (INH) [17]: 48.4%; Activity (Candida albicans [18]): Active
NC(=O)/C=C/c1ccc(COC(Cn2ccnc2)c2ccc(Cl)cc2Cl)cc1 (stereo unspecified)	64 µg/mL (≈ 154 µM)	16 µg/mL (≈ 38.4 µM)	64 µg/mL (≈ 154 µM)	2 µg/mL (≈ 4.8 µM)	8 µg/mL (≈ 19.2 µM)	1 µg/mL (≈ 2.4 µM)	16 µg/mL (≈ 38.4 µM)	128 µg/mL (≈ 307 µM)	64 µg/mL (≈ 154 µM)	128 µg/mL (≈ 307 µM)	4 µg/mL (≈ 9.61 µM)	32 µg/mL (≈ 76.9 µM)	32 µg/mL (≈ 76.9 µM)	
O=C(/C=C/c1ccc(COC(Cn2ccnc2)c2ccc(Cl)cc2Cl)cc1)Nc1cccc(Br)c1 (stereo unspecified)	4 µg/mL (≈ 7 µM)	4 µg/mL (≈ 7 µM)	64 µg/mL (≈ 112 µM)	0.25 µg/mL (≈ 0.438 µM)	64 µg/mL (≈ 112 µM)	0.125 µg/mL (≈ 0.219 µM)	8 µg/mL (≈ 14 µM)	128 µg/mL (≈ 224 µM)	64 µg/mL (≈ 112 µM)	128 µg/mL (≈ 224 µM)	0.125 µg/mL (≈ 0.219 µM)	4 µg/mL (≈ 7 µM)	2 µg/mL (≈ 3.5 µM)	
CCNC(=O)/C=C/c1ccc(COC(Cn2ccnc2)c2ccc(Cl)cc2Cl)cc1 (stereo unspecified)	8 µg/mL (≈ 18 µM)	2 µg/mL (≈ 4.5 µM)	32 µg/mL (≈ 72 µM)	0.5 µg/mL (≈ 1.13 µM)	4 µg/mL (≈ 9 µM)	1 µg/mL (≈ 2.25 µM)	8 µg/mL (≈ 18 µM)	128 µg/mL (≈ 288 µM)	16 µg/mL (≈ 36 µM)	128 µg/mL (≈ 288 µM)	8 µg/mL (≈ 18 µM)	16 µg/mL (≈ 36 µM)	16 µg/mL (≈ 36 µM)	
O=C(/C=C/c1ccc(COC(Cn2ccnc2)c2ccc(Cl)cc2Cl)cc1)Nc1ccc(Cl)cc1 (stereo unspecified)	0.5 µg/mL (≈ 0.949 µM)	0.5 µg/mL (≈ 0.949 µM)	4 µg/mL (≈ 7.59 µM)	0.06 µg/mL (≈ 0.114 µM)	1 µg/mL (≈ 1.9 µM)	0.03 µg/mL (≈ 0.0569 µM)	2 µg/mL (≈ 3.8 µM)	8 µg/mL (≈ 15.2 µM)	8 µg/mL (≈ 15.2 µM)	128 µg/mL (≈ 243 µM)	0.125 µg/mL (≈ 0.237 µM)	1 µg/mL (≈ 1.9 µM)	0.5 µg/mL (≈ 0.949 µM)	
O=C(/C=C/c1ccc(COC(Cn2ccnc2)c2ccc(Cl)cc2Cl)cc1)Nc1ccc(C(F)(F)F)cc1 (stereo unspecified)	32 µg/mL (≈ 57.1 µM)	2 µg/mL (≈ 3.57 µM)	64 µg/mL (≈ 114 µM)	0.03 µg/mL (≈ 0.0535 µM)	64 µg/mL (≈ 114 µM)	0.03 µg/mL (≈ 0.0535 µM)	2 µg/mL (≈ 3.57 µM)	64 µg/mL (≈ 114 µM)	32 µg/mL (≈ 57.1 µM)	128 µg/mL (≈ 228 µM)	0.5 µg/mL (≈ 0.892 µM)	16 µg/mL (≈ 28.6 µM)	8 µg/mL (≈ 14.3 µM)	
O=C(/C=C/c1ccc(COC(Cn2ccnc2)c2ccc(Cl)cc2Cl)cc1)Nc1cccc(Cl)c1 (stereo unspecified)	16 µg/mL (≈ 30.4 µM)	2 µg/mL (≈ 3.8 µM)	64 µg/mL (≈ 121 µM)	0.125 µg/mL (≈ 0.237 µM)	32 µg/mL (≈ 60.7 µM)	0.06 µg/mL (≈ 0.114 µM)	16 µg/mL (≈ 30.4 µM)	128 µg/mL (≈ 243 µM)	64 µg/mL (≈ 121 µM)	128 µg/mL (≈ 243 µM)	0.125 µg/mL (≈ 0.237 µM)	4 µg/mL (≈ 7.59 µM)	2 µg/mL (≈ 3.8 µM)	
COc1ccc(NC(=O)/C=C/c2ccc(COC(Cn3ccnc3)c3ccc(Cl)cc3Cl)cc2)cc1 (stereo unspecified)	4 µg/mL (≈ 7.66 µM)	0.25 µg/mL (≈ 0.479 µM)	2 µg/mL (≈ 3.83 µM)	0.03 µg/mL (≈ 0.0574 µM)	4 µg/mL (≈ 7.66 µM)	0.06 µg/mL (≈ 0.115 µM)	0.125 µg/mL (≈ 0.239 µM)	4 µg/mL (≈ 7.66 µM)	4 µg/mL (≈ 7.66 µM)	2 µg/mL (≈ 3.83 µM)	0.125 µg/mL (≈ 0.239 µM)	4 µg/mL (≈ 7.66 µM)	4 µg/mL (≈ 7.66 µM)	
CNC(=O)/C=C/c1ccc(COC(Cn2ccnc2)c2ccc(Cl)cc2Cl)cc1 (stereo unspecified)	8 µg/mL (≈ 18.6 µM)	4 µg/mL (≈ 9.3 µM)	16 µg/mL (≈ 37.2 µM)	0.25 µg/mL (≈ 0.581 µM)	8 µg/mL (≈ 18.6 µM)	0.125 µg/mL (≈ 0.29 µM)	8 µg/mL (≈ 18.6 µM)	128 µg/mL (≈ 297 µM)	32 µg/mL (≈ 74.4 µM)	128 µg/mL (≈ 297 µM)	4 µg/mL (≈ 9.3 µM)	16 µg/mL (≈ 37.2 µM)	16 µg/mL (≈ 37.2 µM)	
O=C(/C=C/c1ccc(COC(Cn2ccnc2)c2ccc(Cl)cc2Cl)cc1)Nc1ccc(Br)cc1 (stereo unspecified)	16 µg/mL (≈ 28 µM)	4 µg/mL (≈ 7 µM)	16 µg/mL (≈ 28 µM)	0.06 µg/mL (≈ 0.105 µM)	32 µg/mL (≈ 56 µM)	0.03 µg/mL (≈ 0.0525 µM)	4 µg/mL (≈ 7 µM)	16 µg/mL (≈ 28 µM)	8 µg/mL (≈ 14 µM)	32 µg/mL (≈ 56 µM)	0.25 µg/mL (≈ 0.438 µM)	8 µg/mL (≈ 14 µM)	4 µg/mL (≈ 7 µM)	
